Results taken from PubChem BioAssay (NCI).
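Grown in 96-well plates, cells were treated for 48 hours with each compound at five concentrations. Insufficient inhibition: endpoint recorded as highest concentration tested. TGI denotes the concentration required for complete inhibition of growth.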

Legend:
Test in all cases: growth of human tumour cells (NCI), 48 h
UO-31 renal = tested on: UO-31 renal
SF-295 CNS = tested on: SF-295 CNS
SK-MEL-28 melanoma = tested on: SK-MEL-28 melanoma
OVCAR-4 ovarian = tested on: OVCAR-4 ovarian
SF-268 CNS = tested on: SF-268 CNS
M19-MEL melanoma = tested on: M19-MEL melanoma
MOLT-4 leukemia = tested on: MOLT-4 leukemia
SN12C renal = tested on: SN12C renal
TK-10 renal = tested on: TK-10 renal
IGROV1 ovarian = tested on: IGROV1 ovarian
SW-620 colon = tested on: SW-620 colon
SNB-75 CNS = tested on: SNB-75 CNS
HT29 colon = tested on: HT29 colon
OVCAR-5 ovarian = tested on: OVCAR-5 ovarian
SK-OV-3 ovarian = tested on: SK-OV-3 ovarian
KM20L2 colon = tested on: KM20L2 colon
RXF 393 renal = tested on: RXF 393 renal
UACC-62 melanoma = tested on: UACC-62 melanoma
COLO 205 colon = tested on: COLO 205 colon
NCI-H23 lung = tested on: NCI-H23 lung
LXFL 529 NSCLC = tested on: LXFL 529 NSCLC
HOP-92 NSCLC = tested on: HOP-92 NSCLC
HCT-116 colon = tested on: HCT-116 colon
HCT-15 colon = tested on: HCT-15 colon
SF-539 CNS = tested on: SF-539 CNS
DMS 273 small cell lung = tested on: DMS 273 small cell lung
NCI-H226 lung = tested on: NCI-H226 lung
UACC-257 melanoma = tested on: UACC-257 melanoma
ACHN renal = tested on: ACHN renal
MALME-3M melanoma = tested on: MALME-3M melanoma
HCC-2998 colon = tested on: HCC-2998 colon
A549 NSCLC = tested on: A549 NSCLC
EKVX NSCLC = tested on: EKVX NSCLC
NCI-H522 lung = tested on: NCI-H522 lung
U251 CNS = tested on: U251 CNS
OVCAR-3 ovarian = tested on: OVCAR-3 ovarian
OVCAR-8 ovarian = tested on: OVCAR-8 ovarian
SK-MEL-2 melanoma = tested on: SK-MEL-2 melanoma
SK-MEL-5 melanoma = tested on: SK-MEL-5 melanoma
KM12 colon = tested on: KM12 colon
SNB-78 CNS = tested on: SNB-78 CNS
DMS 114 small cell lung = tested on: DMS 114 small cell lung
RPMI-8226 leukemia = tested on: RPMI-8226 leukemia
786-0 renal = tested on: 786-0 renal
K-562 leukemia = tested on: K-562 leukemia
SNB-19 CNS = tested on: SNB-19 CNS
CAKI-1 renal = tested on: CAKI-1 renal
M14 melanoma = tested on: M14 melanoma
T-47D breast = tested on: T-47D breast
NCI/ADR-RES ovarian = tested on: NCI/ADR-RES ovarian
MDA-MB-435 = tested on: MDA-MB-435
CCRF-CEM leukemia = tested on: CCRF-CEM leukemia
HL-60(TB) leukemia = tested on: HL-60(TB) leukemia
MCF7 breast = tested on: MCF7 breast
MDA-MB-231 breast = tested on: MDA-MB-231 breast
DU-145 prostate = tested on: DU-145 prostate
HOP-62 NSCLC = tested on: HOP-62 NSCLC
MDA-N = tested on: MDA-N
LOX IMVI melanoma = tested on: LOX IMVI melanoma
BT-549 breast = tested on: BT-549 breast
PC-3 prostate = tested on: PC-3 prostate
SR leukemia = tested on: SR leukemia
NCI-H460 lung = tested on: NCI-H460 lung
A498 renal = tested on: A498 renal
HS 578T breast = tested on: HS 578T breast
HOP-18 NSCLC = tested on: HOP-18 NSCLC
DLD-1 colon = tested on: DLD-1 colon
XF 498 CNS = tested on: XF 498 CNS

Measured: TGI

NCCCSCC(=O)O
> 100 µM: UO-31 renal | SF-295 CNS | SK-MEL-28 melanoma | OVCAR-4 ovarian | SF-268 CNS | M19-MEL melanoma | MOLT-4 leukemia | SN12C renal | TK-10 renal | IGROV1 ovarian | SW-620 colon | SNB-75 CNS | HT29 colon | OVCAR-5 ovarian | SK-OV-3 ovarian | KM20L2 colon | RXF 393 renal | UACC-62 melanoma | COLO 205 colon | NCI-H23 lung | LXFL 529 NSCLC | HOP-92 NSCLC | HCT-116 colon | HCT-15 colon | SF-539 CNS | DMS 273 small cell lung | NCI-H226 lung | UACC-257 melanoma | ACHN renal | MALME-3M melanoma | HCC-2998 colon | A549 NSCLC | EKVX NSCLC | NCI-H522 lung | U251 CNS | OVCAR-3 ovarian | OVCAR-8 ovarian | SK-MEL-2 melanoma | SK-MEL-5 melanoma | KM12 colon | SNB-78 CNS | DMS 114 small cell lung | RPMI-8226 leukemia | 786-0 renal | K-562 leukemia | SNB-19 CNS | CAKI-1 renal

O=C1CCCC1C(O)(C(F)(F)Cl)C(F)(F)Cl (stereo not given)
> 10 µM: SF-295 CNS | SK-MEL-28 melanoma | M14 melanoma | OVCAR-4 ovarian | SF-268 CNS | MOLT-4 leukemia | SN12C renal | T-47D breast | TK-10 renal | IGROV1 ovarian | NCI/ADR-RES ovarian | SW-620 colon | MDA-MB-435 | SNB-75 CNS | HT29 colon | OVCAR-5 ovarian | SK-OV-3 ovarian | CCRF-CEM leukemia | RXF 393 renal | UACC-62 melanoma | COLO 205 colon | NCI-H23 lung | HL-60(TB) leukemia | HOP-92 NSCLC | MCF7 breast | HCT-116 colon | HCT-15 colon | SF-539 CNS | NCI-H226 lung | MDA-MB-231 breast | UACC-257 melanoma | ACHN renal | DU-145 prostate | MALME-3M melanoma | HCC-2998 colon | HOP-62 NSCLC | A549 NSCLC | EKVX NSCLC | NCI-H522 lung | MDA-N | U251 CNS | OVCAR-3 ovarian | OVCAR-8 ovarian | SK-MEL-2 melanoma | LOX IMVI melanoma | SK-MEL-5 melanoma | BT-549 breast | KM12 colon | PC-3 prostate | SR leukemia | NCI-H460 lung | A498 renal | HS 578T breast | RPMI-8226 leukemia | 786-0 renal | K-562 leukemia | SNB-19 CNS | CAKI-1 renal

COc1ccc2c(c1)[n+](=O)c(C(=O)C/C(=N\NC(=O)C[N+](C)(C)C)C(=O)Nc1cc(Cl)ccc1Cl)c(C)n2O
> 100 µM: UO-31 renal | SF-295 CNS | SK-MEL-28 melanoma | M14 melanoma | OVCAR-4 ovarian | HOP-18 NSCLC | SF-268 CNS | M19-MEL melanoma | MOLT-4 leukemia | SN12C renal | TK-10 renal | IGROV1 ovarian | SW-620 colon | SNB-75 CNS | HT29 colon | OVCAR-5 ovarian | CCRF-CEM leukemia | RXF 393 renal | UACC-62 melanoma | COLO 205 colon | NCI-H23 lung | HL-60(TB) leukemia | LXFL 529 NSCLC | HOP-92 NSCLC | HCT-116 colon | HCT-15 colon | SF-539 CNS | DMS 273 small cell lung | NCI-H226 lung | UACC-257 melanoma | ACHN renal | MALME-3M melanoma | DLD-1 colon | HCC-2998 colon | HOP-62 NSCLC | A549 NSCLC | EKVX NSCLC | NCI-H522 lung | U251 CNS | OVCAR-3 ovarian | OVCAR-8 ovarian | SK-MEL-2 melanoma | LOX IMVI melanoma | SK-MEL-5 melanoma | KM12 colon | SNB-78 CNS | SR leukemia | NCI-H460 lung | A498 renal | RPMI-8226 leukemia | 786-0 renal | K-562 leukemia | SNB-19 CNS | CAKI-1 renal

O=c1n(CC2CO2)c2ccccc2n1CC1CS1 (stereo not given)
> 100 µM: UO-31 renal | SF-295 CNS | SK-MEL-28 melanoma | M14 melanoma | XF 498 CNS | OVCAR-4 ovarian | SF-268 CNS | M19-MEL melanoma | MOLT-4 leukemia | SN12C renal | TK-10 renal | IGROV1 ovarian | SW-620 colon | OVCAR-5 ovarian | KM20L2 colon | CCRF-CEM leukemia | RXF 393 renal | UACC-62 melanoma | COLO 205 colon | LXFL 529 NSCLC | HOP-92 NSCLC | HCT-116 colon | HCT-15 colon | SF-539 CNS | DMS 273 small cell lung | NCI-H226 lung | ACHN renal | MALME-3M melanoma | HCC-2998 colon | HOP-62 NSCLC | A549 NSCLC | EKVX NSCLC | NCI-H522 lung | OVCAR-3 ovarian | OVCAR-8 ovarian | SK-MEL-2 melanoma | LOX IMVI melanoma | KM12 colon | SR leukemia | NCI-H460 lung | DMS 114 small cell lung | RPMI-8226 leukemia | K-562 leukemia | SNB-19 CNS | CAKI-1 renal
87.7 µM: HL-60(TB) leukemia
